Experimental findings from patent publication US10793527B2, “Adenosine monophosphate-activated protein kinase agonist” (NATIONAL YANG-MING UNIVERSITY, priority 2016, dated 2020) are described below.

For one assay, the system named is PLC/PRF/5 (PLC5) cells. The assay can be described thus: Cell viability of liver cancer cells (Prestoblue), PLC5. The assay is classed as cell-based. To be noted: PLC5 cells, 48 hr. On the procedure: Hepatoma cell Huh-7 was obtained from Health Science Research Resources Bank (HSRRB, Osaka. Japan; JCRB0403); Hepatoma cell PLC/PRF/5 (PLC5), Sk-Hep-1 and HCC1806 were obtained from the American Type Culture Collection (ATCC, Manassas, Va.). All cell lines are cultured immediately and frozen, so the frozen cells can be thawed every 3 months to allow experiments are conducted with the same batch of cells.
Analysis is performed using a commercial kit Prestoblue assay produced by Thermo Fisher Scientific. Three liver cancer cell lines PLC/PRF/5, SK-hep1, and Huh-7 are cultured with compound SCT-1015 for 48 hours and 72 hours, respectively. […] The results support that the compound of the present invention can activate AMPK to inhibit the proliferation of liver cancer cells.

For the next assay, the system named is AMPK T172. The assay can be described thus: Detection of AMPK phosphorylation by ELISA assay in PLC5 cells. The assay is classed as cell-based. Particulars: PLC5 cultured with 10 μM compound for 24 hours, compared to control group. On the procedure: In this analysis, the commercial kit AMPK […] Phospho-ELISA Kit (KHO0651) produced by ThermoFisher Science is utilized. The hepatoma cell PLC5 is cultured with 10 μM of the compound for 24 hours, and the analysis is performed according to the manual, and the absorbance was detected at a wavelength of 450 nm.
(In general: In an ELISA, binding on a coated surface is turned into a signal by an enzyme label.)

A value given as a limit tells only on which side of the number the result lay.

Regarding `Cc1ccc(C(=O)Nc2ccc(Cl)c(C(F)(F)F)c2)cc1Nc1nccc(-c2ccc(C#N)cc2)n1` [SCT-1001, N-(4-chloro-3-(trifluoromethyl)phenyl)-(3)-((4-(4-cyanophenyl)pyrimidin-2-yl)amino)-4-methylbenzamide], in the assay with PLC/PRF/5 (PLC5) cells, the IC50 – broadly, the concentration needed to halve the response being measured – is greater than 20 µM.

Turning to `Cc1ccc(C(=O)Nc2ccc(Cl)c(C(F)(F)F)c2)cc1Nc1nccc(-c2cccc(C#N)c2)n1` [SCT-1002, N-(4-chloro-3-(trifluoromethyl)phenyl)-3-((4-(3-cyanophenyl)pyrimidin-2-yl)amino)-4-methylbenzamide], the “AMPK T172 activity” value in the assay with AMPK T172 was 1.2 fold. In addition, the IC50 in the assay with PLC/PRF/5 (PLC5) cells is greater than 20 µM.

Regarding `Cc1ccc(C(=O)Nc2ccc(Cl)c(C(F)(F)F)c2)cc1Nc1nccc(-c2ccc[nH]2)n1` [SCT-1003, 3-((4-(1H-pyrrol-2-yl)pyrimidin-2-yl)amino)-N-(4-chloro-3-(trifluoromethyl)phenyl)-4-methylbenzamide], the “AMPK T172 activity” value in the assay on AMPK T172 was determined as 1.1 fold. For the same compound, the IC50 in the assay on PLC/PRF/5 (PLC5) cells was greater than 20 µM.

Consider `Cc1ccc(C(=O)Nc2ccc(Cl)c(C(F)(F)F)c2)cc1Nc1nccc(-c2ccccc2)n1` [SCT-1004, N-(4-chloro-3-(trifluoromethyl)phenyl)-4-methyl-3-((4-phenylpyrimidin-2-yl)amino)benzamide], for which the “AMPK T172 activity” value in the assay with AMPK T172 is 1.1 fold. This compound came in with an IC50 in the assay on PLC/PRF/5 (PLC5) cells greater than 20 µM.

Take `COc1ccc2ccccc2c1-c1ccnc(Nc2cc(C(=O)Nc3ccc(Cl)c(C(F)(F)F)c3)ccc2C)n1` [SCT-1005, N-(4-chloro-3-(trifluoromethyl)phenyl)-3-((4-(2-methoxynaphthalen-1-yl)pyrimidin-2-yl)amino)-4-methylbenzamide]: the “AMPK T172 activity” value in the assay with AMPK T172 amounted to 1.0 fold. For the same compound, in the assay on PLC/PRF/5 (PLC5) cells, the IC50 was greater than 20 µM.

As to `Cc1ccc(C(=O)Nc2ccc(Cl)c(C(F)(F)F)c2)cc1Nc1cc(-c2ccccc2)ncn1` [SCT-1006, N-(4-chloro-3-(trifluoromethyl)phenyl)-4-methyl-3-((6-phenylpyrimidin-4-yl)amino)benzamide], the “AMPK T172 activity” value in the assay with AMPK T172 was 1.3 fold. In the assay on PLC/PRF/5 (PLC5) cells, this compound came in with an IC50 greater than 20 µM.

As for `Cc1ccc(C(=O)Nc2ccc(Cl)c(C(F)(F)F)c2)cc1Nc1nccc(-c2cccs2)n1` [SCT-1007, N-(4-chloro-3-(trifluoromethyl)phenyl)-4-methyl-3-((4-(thiophen-2-yl)pyrimidin-2-yl)amino)benzamide], the “AMPK T172 activity” value with AMPK T172 is on record as 1.1 fold. Also, the IC50 with PLC/PRF/5 (PLC5) cells is greater than 20 µM.

`O=C(Nc1cccc(Nc2nccc(-c3cc(Cl)cc(Cl)c3)n2)c1)Nc1ccc(Cl)c(C(F)(F)F)c1` [SCT-1023, 1-(4-chloro-3-(trifluoromethyl)phenyl)-3-(3-((4-(3,5-dichlorophenyl)pyrimidin-2-yl)amino)phenyl)urea]: the IC50 in the assay on PLC/PRF/5 (PLC5) cells was greater than 20 µM.

As to `CCc1cccc(NC(=O)Nc2cccc(Nc3nccc(-c4ccc[nH]4)n3)c2)c1` [SCT-1033], the IC50 with PLC/PRF/5 (PLC5) cells is greater than 20 µM.

In the assay on PLC/PRF/5 (PLC5) cells, `Cc1ccc(F)c(NC(=O)Nc2cccc(Nc3nccc(-c4ccc[nH]4)n3)c2)c1` [SCT-1034] gave an IC50 greater than 20 µM.

On to `COC(=O)c1cccc(NC(=O)Nc2cccc(Nc3nccc(-c4ccc[nH]4)n3)c2)c1` [SCT-1037], for which, in the assay on PLC/PRF/5 (PLC5) cells, the IC50 is greater than 20 µM.

For the compound `O=C(Nc1cccc(Nc2nccc(-c3ccc[nH]3)n2)c1)Nc1cccc(C(=O)O)c1` [SCT-1038, 3-(3-(3-((4-(1H-pyrrol-2-yl)pyrimidin-2-yl)amino)phenyl)ureido)benzoic acid], the IC50 in the assay on PLC/PRF/5 (PLC5) cells is greater than 20 µM.

On to `COC(=O)c1cc(NC(=O)Nc2cccc(Nc3nccc(-c4ccc[nH]4)n3)c2)ccc1C` [SCT-1039, Methyl 5-(3-(3-((4-(1H-pyrrol-2-yl)pyrimidin-2-yl)amino)phenyl)ureido)-2-methylbenzoate], for which, in the assay on PLC/PRF/5 (PLC5) cells, the IC50 was greater than 20 µM.

In the assay on PLC/PRF/5 (PLC5) cells, `COC(=O)c1cc(NC(=O)Nc2cccc(Nc3nccc(-c4ccc[nH]4)n3)c2)ccc1Cl` [SCT-1041, Methyl 5-(3-(3-((4-(1H-pyrrol-2-yl)pyrimidin-2-yl)amino)phenyl)ureido)-2-chlorobenzoate] returned an IC50 greater than 20 µM.
